{"source": "patent US6200966A", "about": "“Compositions for inhibiting airway wall inflammation” (Amrad Operations Pty. Ltd., priority 1996, dated 2001)", "key": {"[1]": {"system": "human cultured airway smooth muscle cells", "experiment": "Cell counting (increase in cell number)", "assay_type": "cell-based", "details": "FCS (1%) or bFGF (300 pM); 3 μM; 48 h", "experimental": "Human bronchial airway smooth muscle was obtained from macroscopically normal lung resection specimens from lung transplant donors or recipients provided by the Alfred Hospital (Melbourne). Cultures were prepared as previously described in detail (Tomlinson et al., 1994). […]\nThe progression of airway smooth muscle cells through the cell-cycle to mitosis was determined by measuring changes in cell number in experiments of analogous design to those used for DNA synthesis, except that the incubations with mitogen were continued for 48 hours. […] At the end of this period, a further 200 μl of PBS (20% FCS) was added to prevent cell lysis by trypsin and cells were counted directly in a haemocytometer.\nEach treatment in an individual experiment was carried out in quadruplicate for DNA and protein synthesis experiments. […] Results are presented as grouped data from multiple cultures and are expressed as mean ±S. E. of n cultures. The degree of increment was calculated by dividing the response of treated wells by that of the control wells on the same 24-well plate. The grouped data was analysed by paired t-test after normalisation by log transformation. […]"}, "tubulin": {"system": "tubulin", "details": "literature; cited from earlier work"}, "[2]": {"system": "cultured smooth muscle cells from rabbit aorta", "details": "Nishigaki et al., 1995; cited from earlier work"}, "adherent monocytes": {"system": "adherent monocytes", "experiment": "Tetramethyl benzidine oxidation in adherent monocytes", "assay_type": "cell-based, human", "details": "PMA (1 μM) or zymosan (400 μg/ml); 10 μM"}, "[3]": {"system": "human cultured airway smooth muscle cells", "experiment": "Protein synthesis: [3H]-leucine incorporation", "assay_type": "cell-based", "details": "for 5HT-stimulated increase in protein synthesis: 5HT 10 nM, 0.3-10 μM", "experimental": "Human bronchial airway smooth muscle was obtained from macroscopically normal lung resection specimens from lung transplant donors or recipients provided by the Alfred Hospital (Melbourne). Cultures were prepared as previously described in detail (Tomlinson et al., 1994). Briefly, the tissue was partially digested in Dulbecco's Modified Eagle's Medium (DMEM), [supplemented with 2 mM L-glutamine, 100 μg/ml streptomycin, 100 U/ml penicillin-G, 2 μg/ml amphotericin B, and 0.25% w/v bovine serum albumin (BSA)] containing 3 mg/ml collagenase for 30 minutes at 37° C. and approximately 0.5 g smooth muscle was further digested by a 2 hour incubation in 0.5 mg/ml elastase, followed by an 18 hour incubation in collagenase (3 mg/ml) at 37° C. Cell suspensions ere centrifuged (10 min, 100×g, 25° C.), washed three times in supplemented DMEM, resuspended in 25 ml DMEM containing 10% (v/v) heat-inactivated foetal calf serum (FCS), seeded into 25 cm^2 Falcon culture flasks and incubated (37° C., 5% CO2) for 7 to 10 days until monolayer confluence was reached. Cells were then harvested weekly by 10 min exposure to 0.5% trypsin, 1 mM EDTA and passaged at a 1:3 split ratio into 75 cm^2 Falcon culture flaskes. Cells at passage numbers 3 to 15 were used for experiments.\nCells were subcultured into 24-well plates at a 1:3 ratio and allowed to grow to monolayer confluency over a 72-96 hour period in an atmosphere of 5% CO2 in air at 37° C. The serum-containing medium was replaced with serum-free DMEM for a 24 hour period to produce growth arrest. In some experiments, the cells were pretreated with 2-methoxyestradiol 30 min before the addition of mitogen. The stimulant (mitogen) was added to the appropriate wells together with a supplement containing insulin, transferrin, and selenium (Monomed A, 1% v/v). Monomed A was added to provide progression factors which are essential for the mitogenic activity of growth factors such as thrombin, epidermal growth factor (EGF) and basic fibroblast growth factor (bFGF) (Stewart et al., 1995a). Mitogens and inhibitors were left in contact with cells from the time of addition until the end of the experiment, unless indicated otherwise. Cells were incubated for 24 hours (37° C., 5% CO2) before being pulsed with [^3 H]-thymidine (1 μCi/ml for four hours) to measure incorporation of radiolabel into newly synthesized DNA, according to out previous study (Stewart et al., 1995). Incorporation of radioactivity was determined by filtration at the end of the pulse-labelling period. The medium containing the radioactivity was aspirated and the cells were lysed by addition of 200 μl of 0.1M NaOH. The DNA was immobilised by filtration in a binding harvester (Packard Filtermate 196) on glass fibre filters (Packard, standard), which were then washed with 3×3 ml volumes of distilled water and a single 1 ml volume of 100% ethanol. The dried filters were counted in a Packard Topcount liquid scintillation counter. Protein synthesis rates were determined in experiments of analogous design to those described above, but [^3 H]-leucine replaced [^3 H]-thymidine in the pulsing incubation of 4 hours. Furthermore, in experiments to determine the effects of mitogens and 2-methoxyestradiol on the rate of protein synthesis, incubations with mitogen were carried out for a period of 48 hours. The longer duration of these experiments was required to allow sufficient time for cell division to occur.\nEach treatment in an individual experiment was carried out in quadruplicate for DNA and protein synthesis experiments. Each experiment was performed in at least three different cultures obtained from three different individuals. For cell counting, single incubations were carried out in three cultures. Results are presented as grouped data from multiple cultures and are expressed as mean ±S. E. of n cultures. The degree of increment was calculated by dividing the response of treated wells by that of the control wells on the same 24-well plate."}, "[4]": {"system": "pig endometrial cell cultures", "details": "Zhang & Davis, 1992; cited from earlier work"}, "[5]": {"system": "guinea-pig peritoneal macrophages", "experiment": "Superoxide anion release in peritoneal macrophages", "assay_type": "cell-based", "details": "10 μM", "experimental": "Guinea-pig peritoneal macrophages were harvested and cultured according to out previous studies (Stewart & Phillips, 1989). Cells were incubated with stimuli including the chemotactic tripeptide, formyl methiony leucyl Phenylalanine (fMLP, 100 nM), Zymosan (400 μg/ml) or phorbol myristate acetate (PMA, 100 nM) for 30 min in the presence or absence of 2-methoxyestradiol (10 μM) added 15 min before the stimuli. […] All individual incubations were carried out in duplicate and experiments were carried out in macrophages from 5 guinea-pigs."}, "[6]": {"system": "human cultured airway smooth muscle cells", "experiment": "Protein synthesis: [3H]-leucine incorporation", "assay_type": "cell-based", "details": "for activity at 0.3 µM / activity at 1 µM / activity at 3 µM / activity at 10 µM: mean ± SEM"}, "[7]": {"details": "Homo sapiens, 5HT (10 nM)-stimulated cells"}, "[8]": {"details": "Homo sapiens, unstimulated cells"}}, "note": "“Also recorded” adds a separate entry of the source."}
{"smiles": "COc1cc2c(cc1O)CC[C@@H]1[C@@H]2CC[C@]2(C)[C@@H](O)CC[C@@H]12", "note": "[2-methoxyestradiol, 1,3,5[10]-estratriene-2,3,17-triol 2-methylether]", "values": [{"measurement": "increase in cell number", "setting": "[1]", "value": "complete inhibition"}, {"measurement": "microtubule disruption / tubulin polymerisation", "setting": "tubulin", "value": "microtubule disruption via binding at the colchicine site on tubulin"}, {"measurement": "proliferation of rabbit aorta smooth muscle cells", "setting": "[2]", "value": "anti-proliferative effects"}, {"measurement": "oxidation of tetramethyl benzidine in adherent monocytes", "setting": "adherent monocytes", "value": "unaffected"}, {"measurement": "5HT-stimulated increase in protein synthesis", "setting": "[3]", "value": "decreased"}, {"measurement": "5HT-stimulated increase in protein synthesis", "setting": "[3]; listed as 2-methoxyoestradiol", "value": "inhibited"}, {"measurement": "[3H]-leucine incorporation, compound alone, 0.3 μM", "setting": "[3]; unstimulated, 0.3 μM", "value": "small stimulation"}, {"measurement": "synthesis of PGF2α", "setting": "[4]", "value": "inhibits the synthesis of PGF2α"}, {"measurement": "superoxide anion response of macrophages, PMA", "setting": "[5]; PMA (100 nM)", "value": "unaffected"}, {"measurement": "superoxide anion response of macrophages, fMLP", "setting": "[5]; fMLP (100 nM)", "value": "reduced"}, {"measurement": "superoxide anion response of macrophages, zymosan", "setting": "[5]; zymosan (400 μg/ml)", "value": "reduced; also recorded: completely blocked"}, {"measurement": "[3H]-leucine incorporation at 10 μM", "setting": "[6]; 10 μM, thrombin or bFGF", "value": "no significant inhibitory effect"}, {"measurement": "activity at 0.3 µM", "setting": "[6]; [7]", "value": "91 ± 5", "unit": "%"}, {"measurement": "activity at 1 µM", "setting": "[6]; [7]", "value": "62 ± 2", "unit": "%"}, {"measurement": "activity at 3 µM", "setting": "[6]; [7]", "value": "56 ± 2", "unit": "%"}, {"measurement": "activity at 10 µM", "setting": "[6]; [7]", "value": "51 ± 6", "unit": "%"}, {"measurement": "activity at 0.3 µM", "setting": "[6]; [8]", "value": "135 ± 3", "unit": "%"}, {"measurement": "activity at 1 µM", "setting": "[6]; [8]", "value": "84 ± 4", "unit": "%"}, {"measurement": "activity at 3 µM", "setting": "[6]; [8]", "value": "77 ± 3", "unit": "%"}, {"measurement": "activity at 10 µM", "setting": "[6]; [8]", "value": "113 ± 9", "unit": "%"}, {"measurement": "inhibition at 3 µM", "setting": "[6]; Homo sapiens, at 3 μM, thrombin, FCS 1% or bFGF, read-out: maximum percentage reduction of [3H]-leucine incorporation", "value": "~30", "unit": "%"}, {"measurement": "minimal effective concentration", "setting": "[6]; Homo sapiens, thrombin (0.3 U/ml), FCS (1% v/v) or bFGF (300 pM), 48 h, read-out: threshold concentration for inhibition of [3H]-leucine incorporation", "value": 1, "unit": "µM"}, {"measurement": "[3H]-leucine incorporation, compound alone, 10 μM", "setting": "[6]; unstimulated, 10 μM", "value": "no effect"}, {"measurement": "[3H]-leucine incorporation, compound alone, 1 and 3 μM", "setting": "[6]; unstimulated, 1 and 3 μM", "value": "small inhibitory effects"}]}
